Results reported in publication PMC4207132 (Journal of Medicinal Chemistry, 2014).

Target: pVHL:EloB:EloC (VBC) complex (Homo sapiens, UniProt P40337)
Format: binding

Chain of pVHL:EloB:EloC (VBC) complex (Q15369 17-112): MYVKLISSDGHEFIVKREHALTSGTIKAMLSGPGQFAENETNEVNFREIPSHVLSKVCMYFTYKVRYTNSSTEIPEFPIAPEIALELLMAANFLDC
Chain of pVHL:EloB:EloC (VBC) complex (P40337 54-213): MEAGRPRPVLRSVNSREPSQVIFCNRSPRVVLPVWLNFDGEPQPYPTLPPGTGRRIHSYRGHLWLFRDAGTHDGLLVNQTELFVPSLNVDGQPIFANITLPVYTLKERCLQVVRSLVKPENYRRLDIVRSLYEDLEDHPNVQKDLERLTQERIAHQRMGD
Chain of pVHL:EloB:EloC (VBC) complex (Q15370 1-104, further chain): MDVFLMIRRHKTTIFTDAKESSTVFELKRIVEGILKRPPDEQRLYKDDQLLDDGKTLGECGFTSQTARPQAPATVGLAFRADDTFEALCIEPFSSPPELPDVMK

## CC(=O)N[C@H](C(=O)N1C[C@H](O)C[C@H]1C(=O)NCc1ccc(-c2scnc2C)cc1)C(C)(C)C [ligand 7, (2S,4R)-1-((S)-2-Acetamido-3,3-dimethylbutanoyl)-4-hydroxy-N-(4-(4-methylthiazol-5-yl)benzyl)pyrrolidine-2-carboxamide]
  increase in affinity compared to 5: ~20 fold
